Laboratory results published in EP4306106A1, “NITRO-CONTAINING COMPOUNDS, COMPOSITIONS AND USES THEREOF” (Universidade de Aveiro, priority 2022, dated 2024).
pIC50: −log10 of the molar value.

Legend:
[1] = test system: total HDAC; experiment: In vitro total HDAC activity (Fluor-de-Lys, HeLa nuclear extract); type: biochemical, human; settings: for %Inhibition at 100 µM: total HDAC activity, nuclear extract from HeLa cells, compound at 100 µM; for total HDAC inhibition capacity: screening at 100 µM, result in words
Procedure: In vitro total HDAC activity was measured according to manufacturer's instructions using a nuclear extract from HeLa cells (human cervical cancer cell line) as HDAC source incubated with the Fluor-de-Lys® substrate (50 µM) for 20 min at room temperature (Fluor-de-Lys®, Enzo® Life Sciences, Antwerpen, Belgium). Reaction was stopped by addition of a developing solution (Fluor-de-Lys® developer I concentrate, Enzo® Life Sciences) containing trichostatin A (TSA) (2 µM). After 15 min of incubation at room temperature, fluorescence signal was measured on a fluorescence microplate reader (SYNERGY HTX multi-mode reader) with an exciting wavelength of 360 nm and emission wavelength of 460 nm. All dilutions of tested compounds were prepared in dimethylsulfoxide (DMSO).
Representative examples of 3-aminopyridines and 3,5-disubstituted nitrobenzenes were screened for their total HDAC inhibition capacity at 100 µM (Table 2). It was observed that only nitro-containing examples were active in the total HDAC screening assay (compounds 1, 3, 9 and 5), which moved forward to the specific HDAC8 isoenzyme assay (Table 3).

[2] = target: T1, recombinant protein HDAC8 (Homo sapiens, UniProt Q9BY41); experiment: In vitro HDAC8 isoenzyme activity (Fluor-de-Lys-HDAC8 substrate); type: biochemical; settings: 1 U/well, substrate 50 µM
T1 construct: purchased Enzo Life Sciences
T1 sequence (Q9BY41 1-377): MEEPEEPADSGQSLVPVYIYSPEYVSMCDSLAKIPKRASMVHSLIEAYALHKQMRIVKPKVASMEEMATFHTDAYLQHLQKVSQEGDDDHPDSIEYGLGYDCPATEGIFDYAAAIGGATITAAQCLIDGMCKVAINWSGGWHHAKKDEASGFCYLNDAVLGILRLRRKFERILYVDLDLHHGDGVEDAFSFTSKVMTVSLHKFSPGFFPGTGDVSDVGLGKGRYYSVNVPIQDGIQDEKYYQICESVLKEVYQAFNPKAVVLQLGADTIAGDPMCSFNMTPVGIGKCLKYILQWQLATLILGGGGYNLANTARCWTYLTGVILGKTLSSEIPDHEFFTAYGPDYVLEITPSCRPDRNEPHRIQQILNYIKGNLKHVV
Procedure: In vitro HDAC8 isoenzyme activity was tested using 1 U/well of recombinant protein HDAC8 (Enzo® Life Sciences) incubated with the Fluor-de-Lys®-HDAC8 substrate (50 µM) for 20 min at room temperature. Reactions were stopped by adding a developer II solution (Fluor-de-Lys® developer II concentrate, Enzo® Life Sciences) containing 2 µM of TSA. After 45 min of incubation at room temperature, fluorescence is measured as for total HDAC activity.

[3] = test system: total HDAC; experiment: In vitro total HDAC activity (Fluor-de-Lys, HeLa nuclear extract); type: biochemical, human; settings: nuclear extract from HeLa cells, 1µM (footnote a)

Row | SMILES | %Inhibition at 100 µM [1] | further results
1 | Nc1cc(C(=O)c2ccccc2O)cnc1-c1ccccc1 | Inactive | –
2 | Nc1cc(C(=O)c2ccccc2O)cnc1-c1ccc2ccccc2c1 | Inactive | –
3 | Cc1cc(C(=O)c2cnc(-c3ccccc3)c(N)c2)c(O)c([N+](=O)[O-])c1 | 67% | –
4 | O=C(c1cc(C(=O)c2ccccc2O)cc([N+](=O)[O-])c1)c1ccccc1O | Inactive | –
5 | Cc1ccc(O)c(C(=O)c2cc(C(=O)c3cc(C)ccc3O)cc([N+](=O)[O-])c2)c1 | Inactive | –
6 | O=C(c1cc(C(=O)c2cc(Cl)ccc2O)cc([N+](=O)[O-])c1)c1cc(Cl)ccc1O | Inactive | –
7 | COc1cccc(O)c1C(=O)c1cc(C(=O)c2c(O)cccc2OC)cc([N+](=O)[O-])c1 | Inactive | –
8 | Cc1cc(C(=O)c2cc(C(=O)c3cc(C)cc([N+](=O)[O-])c3O)cc([N+](=O)[O-])c2)c(O)c([N+](=O)[O-])c1 | 65% | –
9 | Nc1cc(C(=O)c2cc([N+](=O)[O-])ccc2O)cnc1-c1ccccc1 [Compound 1, (5-Amino-6-phenylpyridin-3-yl)(2-hydroxy-5-nitrophenyl)methanone] | – | total HDAC inhibition capacity [1]: active
10 | Nc1cc(C(=O)c2ccccc2O)cnc1-c1ccc([N+](=O)[O-])cc1 [Compound 3, [5-Amino-6-(4-nitrophenyl)pyridin-3-yl](2-hydroxyphenyl)methanone] | – | total HDAC inhibition capacity [1]: active
11 | O=C(c1cc(C(=O)c2cc([N+](=O)[O-])ccc2O)cc([N+](=O)[O-])c1)c1cc([N+](=O)[O-])ccc1O [Compound 5, (5-Nitro-1,3-phenylene)bis[(2-hydroxy-5-nitrophenyl)methanone]] | – | total HDAC inhibition capacity [1]: active; pIC50 [2]: 4.57
12 | N#Cc1ccc(-c2ncc(C(=O)c3cc([N+](=O)[O-])ccc3O)cc2N)cc1 [Compound 9, 4-[3-amino-5-(2-hydroxy-5-nitrobenzoyl)pyridin-2-yl]benzonitrile] | – | total HDAC inhibition capacity [1]: active
13 | CC(/C=C/C(=O)NO)=C\[C@@H](C)C(=O)c1ccc(N(C)C)cc1 [Trichostatin A] | – | %Inhibition of 1µM [3]: 90^a %
14 | Nc1cc(C(=O)c2cc([N+](=O)[O-])ccc2O)cnc1-c1ccccc1 [drawing 28] | 78% | –
15 | N#Cc1ccc(-c2ncc(C(=O)c3cc([N+](=O)[O-])ccc3O)cc2N)cc1 [drawing 29] | 82% | –
16 | Nc1cc(C(=O)c2ccccc2O)cnc1-c1ccc([N+](=O)[O-])cc1 [drawing 30] | 67% | –
17 | O=C(c1cc(C(=O)c2cc([N+](=O)[O-])ccc2O)cc([N+](=O)[O-])c1)c1cc([N+](=O)[O-])ccc1O [drawing 37] | 73% | –
18 | Nc1cc(C(=O)c2cc([N+](=O)[O-])ccc2O)cnc1-c1ccccc1 [drawing 39] | – | pIC50 [2]: 4.13
19 | N#Cc1ccc(-c2ncc(C(=O)c3cc([N+](=O)[O-])ccc3O)cc2N)cc1 [drawing 40] | – | pIC50 [2]: 4.24
